Data reported in patent publication US12077503B2, “Substituted cyclic amides and their use as herbicides” (FMC CORPORATION, priority 2015, dated 2024).

Columns and labels:
Test in all cases: Test C preemergence
Format in all cases: in vivo
[1] = tested on: Galium (catchweed bedstraw, Galium aparine); details: for Plant response rating, Galium: scale 0 to 100, 0 no effect, 100 complete control
Outline: (§1)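 Visual rating, 0–100 scale (0 = no effect, 100 = complete control) versus controls, 13–15 d after treatment. Compounds in non-phytotoxic solvent plus surfactant; applied preemergence to seeds in loam/sand soil or postemergence to 1- to 4-leaf plants (2–18 cm) in peat/vermiculite medium; greenhouse-held.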

[2] = tested on: barnyardgrass (Echinochloa crus-galli); details: for Plant response rating, Barnyardgrass: scale 0 to 100, 0 no effect, 100 complete control
Outline: as §1

[3] = tested on: blackgrass (Alopecurus myosuroides); details: for Plant response rating, Blackgrass: scale 0 to 100, 0 no effect, 100 complete control
Outline: as §1

corn (Zea mays) = details: for Plant response rating, Corn: scale 0 to 100, 0 no effect, 100 complete control
Outline: as §1

[4] = tested on: crabgrass, large (large crabgrass, Digitaria sanguinalis); details: for Plant response rating, Crabgrass, Large: scale 0 to 100, 0 no effect, 100 complete control
Outline: as §1

[5] = tested on: foxtail, giant (giant foxtail, Setaria faberii); details: for Plant response rating, Foxtail, Giant: scale 0 to 100, 0 no effect, 100 complete control
Outline: as §1

[6] = tested on: johnsongrass (Sorghum halepense); details: for Plant response rating, Johnsongrass: scale 0 to 100, 0 no effect, 100 complete control
Outline: as §1

[7] = tested on: lambsquarters (Chenopodium album); details: for Plant response rating, Lambsquarters: scale 0 to 100, 0 no effect, 100 complete control
Outline: as §1

[8] = tested on: morningglory (Ipomoea coccinea); details: for Plant response rating, Morningglory: scale 0 to 100, 0 no effect, 100 complete control
Outline: as §1

[9] = tested on: nutsedge, yellow (yellow nutsedge, Cyperus esculentus); details: for Plant response rating, Nutsedge, Yellow: scale 0 to 100, 0 no effect, 100 complete control
Outline: as §1

[10] = tested on: oilseed rape (Brassica napus); details: for Plant response rating, Oilseed Rape: scale 0 to 100, 0 no effect, 100 complete control
Outline: as §1

[11] = tested on: pigweed (Amaranthus retroflexus); details: for Plant response rating, Pigweed: scale 0 to 100, 0 no effect, 100 complete control
Outline: as §1

[12] = tested on: ragweed (common ragweed, Ambrosia elatior); details: for Plant response rating, Ragweed: scale 0 to 100, 0 no effect, 100 complete control
Outline: as §1

[13] = tested on: ryegrass, Italian (Italian ryegrass, Lolium multiflorum); details: for Plant response rating, Ryegrass, Italian: scale 0 to 100, 0 no effect, 100 complete control
Outline: as §1

soybean (Glycine max) = details: for Plant response rating, Soybean: scale 0 to 100, 0 no effect, 100 complete control
Outline: as §1

[14] = tested on: velvetleaf (Abutilon theophrasti); details: for Plant response rating, Velvetleaf: scale 0 to 100, 0 no effect, 100 complete control
Outline: as §1

[15] = tested on: wheat (winter wheat, Triticum aestivum); details: for Plant response rating, Wheat: scale 0 to 100, 0 no effect, 100 complete control
Outline: as §1

[16] = 31 g ai/ha, 0 is no effect, 100 is complete control

O=C1NCC(c2ccc3c(c2)OC(F)(F)O3)C1C(=O)Nc1cccc(F)c1F (centres unmarked) [Compound 635]
Plant response rating (scale of 0 to 100), Galium [1, 16]: 5 | Plant response rating, Galium ([1]; 62 g ai/ha): 5 | Plant response rating, Galium ([1]; 125 g ai/ha): 80 | Plant response rating, Galium ([1]; 250 g ai/ha): 80 | Plant response rating (scale of 0 to 100), Barnyardgrass [2, 16]: 85 | Plant response rating, Barnyardgrass ([2]; 62 g ai/ha): 90 | Plant response rating, Barnyardgrass ([2]; 125 g ai/ha): 95 | Plant response rating, Barnyardgrass ([2]; 250 g ai/ha): 95 | Plant response rating (scale of 0 to 100), Blackgrass [3, 16]: 30 | Plant response rating, Blackgrass ([3]; 62 g ai/ha): 60 | Plant response rating, Blackgrass ([3]; 125 g ai/ha): 70 | Plant response rating, Blackgrass ([3]; 250 g ai/ha): 90 | Plant response rating (scale of 0 to 100), Corn (corn (Zea mays); [16]): 0 | Plant response rating, Corn (corn (Zea mays); 62 g ai/ha): 70 | Plant response rating, Corn (corn (Zea mays); 125 g ai/ha): 75 | Plant response rating, Corn (corn (Zea mays); 250 g ai/ha): 85 | Plant response rating (scale of 0 to 100), Crabgrass, Large [4, 16]: 90 | Plant response rating, Crabgrass, Large ([4]; 62 g ai/ha): 95 | Plant response rating, Crabgrass, Large ([4]; 125 g ai/ha): 95 | Plant response rating, Crabgrass, Large ([4]; 250 g ai/ha): 98 | Plant response rating (scale of 0 to 100), Foxtail, Giant [5, 16]: 85 | Plant response rating, Foxtail, Giant ([5]; 62 g ai/ha): 90 | Plant response rating, Foxtail, Giant ([5]; 125 g ai/ha): 95 | Plant response rating, Foxtail, Giant ([5]; 250 g ai/ha): 95 | Plant response rating (scale of 0 to 100), Johnsongrass [6, 16]: 25 | Plant response rating, Johnsongrass ([6]; 62 g ai/ha): 75 | Plant response rating, Johnsongrass ([6]; 125 g ai/ha): 65 | Plant response rating, Johnsongrass ([6]; 250 g ai/ha): 85 | Plant response rating (scale of 0 to 100), Lambsquarters [7, 16]: 40 | Plant response rating, Lambsquarters ([7]; 62 g ai/ha): 40 | Plant response rating, Lambsquarters ([7]; 125 g ai/ha): 80 | Plant response rating, Lambsquarters ([7]; 250 g ai/ha): 85 | Plant response rating (scale of 0 to 100), Morningglory [8, 16]: 0 | Plant response rating, Morningglory ([8]; 62 g ai/ha): 25 | Plant response rating, Morningglory ([8]; 125 g ai/ha): 30 | Plant response rating, Morningglory ([8]; 250 g ai/ha): 50 | Plant response rating (scale of 0 to 100), Nutsedge, Yellow [9, 16]: 0 | Plant response rating, Nutsedge, Yellow ([9]; 62 g ai/ha): 0 | Plant response rating, Nutsedge, Yellow ([9]; 125 g ai/ha): 0 | Plant response rating, Nutsedge, Yellow ([9]; 250 g ai/ha): 25 | Plant response rating (scale of 0 to 100), Oilseed Rape [10, 16]: 25 | Plant response rating, Oilseed Rape ([10]; 62 g ai/ha): 50 | Plant response rating, Oilseed Rape ([10]; 125 g ai/ha): 90 | Plant response rating, Oilseed Rape ([10]; 250 g ai/ha): 90 | Plant response rating (scale of 0 to 100), Pigweed [11, 16]: 70 | Plant response rating, Pigweed ([11]; 62 g ai/ha): 70 | Plant response rating, Pigweed ([11]; 125 g ai/ha): 85 | Plant response rating, Pigweed ([11]; 250 g ai/ha): 85 | Plant response rating (scale of 0 to 100), Ragweed [12, 16]: 40 | Plant response rating, Ragweed ([12]; 62 g ai/ha): 70 | Plant response rating, Ragweed ([12]; 125 g ai/ha): 80 | Plant response rating, Ragweed ([12]; 250 g ai/ha): 80 | Plant response rating (scale of 0 to 100), Ryegrass, Italian [13, 16]: 0 | Plant response rating, Ryegrass, Italian ([13]; 62 g ai/ha): 5 | Plant response rating, Ryegrass, Italian ([13]; 125 g ai/ha): 20 | Plant response rating, Ryegrass, Italian ([13]; 250 g ai/ha): 40 | Plant response rating (scale of 0 to 100), Soybean (soybean (Glycine max); [16]): 20 | Plant response rating, Soybean (soybean (Glycine max); 62 g ai/ha): 85 | Plant response rating, Soybean (soybean (Glycine max); 125 g ai/ha): 5 | Plant response rating, Soybean (soybean (Glycine max); 250 g ai/ha): 60 | Plant response rating (scale of 0 to 100), Velvetleaf [14, 16]: 0 | Plant response rating, Velvetleaf ([14]; 62 g ai/ha): 10 | Plant response rating, Velvetleaf ([14]; 125 g ai/ha): 15 | Plant response rating, Velvetleaf ([14]; 250 g ai/ha): 40 | Plant response rating (scale of 0 to 100), Wheat [15, 16]: 0 | Plant response rating, Wheat ([15]; 62 g ai/ha): 0 | Plant response rating, Wheat ([15]; 125 g ai/ha): 10 | Plant response rating, Wheat ([15]; 250 g ai/ha): 65
